{
  "source": "paper PMC8998802",
  "about": "(Pain, 2019)",
  "biological_target": "δ opioid receptor (DOR) (Homo sapiens, UniProt P41143)",
  "sequence (P41143 whole entry)": "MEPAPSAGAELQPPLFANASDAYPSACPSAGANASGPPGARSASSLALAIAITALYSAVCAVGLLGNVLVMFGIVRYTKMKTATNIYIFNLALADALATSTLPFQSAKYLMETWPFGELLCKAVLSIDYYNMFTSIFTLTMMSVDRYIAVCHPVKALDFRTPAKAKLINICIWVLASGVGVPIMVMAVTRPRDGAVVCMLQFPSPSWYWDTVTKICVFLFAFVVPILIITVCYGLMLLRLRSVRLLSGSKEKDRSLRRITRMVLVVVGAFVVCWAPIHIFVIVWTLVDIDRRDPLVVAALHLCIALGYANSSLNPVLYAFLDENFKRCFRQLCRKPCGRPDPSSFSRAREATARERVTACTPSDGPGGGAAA",
  "test": "competition radioligand binding vs 3H-diprenorphine, DOR-CHO membranes",
  "data": [
    {"compound": "Cc1noc(C)c1CC(=O)NCc1nc(NCCCc2ccccc2)c2ccccc2n1", "note": "[IPPQ, 2-(3,5-dimethylisoxazol-4-yl)-N-((4-((3-phenylpropyl)amino)quinazolin-2-yl)methyl)acetamide]", "values": [
      {"measurement": "Ki", "value": "> 1000", "unit": "nM"}
    ]}
  ]
}
